Data: ChEMBL document CHEMBL1132382 (J Med Chem, 1999)

Legend:
Carbonic anhydrase 4 = molecular target: T1, Carbonic anhydrase 4 (Bos taurus, UniProt Q95323)
T1 sequence (Q95323 whole entry): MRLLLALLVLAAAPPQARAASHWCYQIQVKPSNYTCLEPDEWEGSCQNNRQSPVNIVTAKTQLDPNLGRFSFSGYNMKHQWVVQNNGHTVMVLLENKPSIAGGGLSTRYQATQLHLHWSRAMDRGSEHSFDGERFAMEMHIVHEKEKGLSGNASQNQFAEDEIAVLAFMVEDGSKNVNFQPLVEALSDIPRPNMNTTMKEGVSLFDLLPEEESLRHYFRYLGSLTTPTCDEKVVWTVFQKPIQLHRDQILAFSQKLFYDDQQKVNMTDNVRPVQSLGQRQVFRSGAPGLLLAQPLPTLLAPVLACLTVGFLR
Description: Inhibitory activity against bovine carbonic anhydrase IV (CA4), isolated from bovine lung microsomes

Carbonic anhydrase 1 = Carbonic anhydrase 1 (Homo sapiens, UniProt P00915)
Description: Inhibitory activity against human recombinant carbonic anhydrase I (CA1)

[1] = not given; remark: listed apart in the source
[2] = octanol/water
Description: Partition coefficient (logD) (chloroform/buffer)

Chain of Carbonic anhydrase 1 (P00915 whole entry): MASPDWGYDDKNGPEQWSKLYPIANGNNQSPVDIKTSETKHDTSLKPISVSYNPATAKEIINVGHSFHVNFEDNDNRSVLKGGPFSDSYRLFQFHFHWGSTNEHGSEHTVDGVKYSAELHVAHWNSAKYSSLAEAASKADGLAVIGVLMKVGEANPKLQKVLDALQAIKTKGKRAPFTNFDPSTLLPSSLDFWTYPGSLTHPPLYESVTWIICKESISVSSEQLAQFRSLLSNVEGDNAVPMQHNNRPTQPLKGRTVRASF

Row | Structure (SMILES) | Ki (Carbonic anhydrase 4) | Ki (Carbonic anhydrase 1) | kin | kin [1] | logD [2]
1 | Cn1nc(S(N)(=O)=O)s/c1=N\C(=O)CN | 0.07 µM | 0.335 µM |  |  | 
2 | NCC(=O)NS(=O)(=O)c1nc2ccc(O)cc2s1 | 0.069 µM | 0.016 µM |  |  | 
3 | CNCC(=O)Nc1c(S(N)(=O)=O)cc(S(N)(=O)=O)c(Cl)c1Cl | 0.055 µM | 0.52 µM |  |  | 
4 | CN(CC(=O)Nc1nccc(Nc2ccc(S(N)(=O)=O)cc2)n1)C(=N)N | 0.04 µM | 0.053 µM |  |  | 
5 | CNCC(=O)Nc1ccc(S(N)(=O)=O)cc1Br | 0.064 µM | 0.54 µM |  |  | 
6 | CNCC(=O)NS(=O)(=O)c1ccc(CO)cc1 | 0.123 µM | 1.5 µM |  |  | 
7 | CNCC(=O)Nc1ccc(S(=O)(=O)Nc2cccc(S(N)(=O)=O)c2)cc1 | 0.061 µM | 0.051 µM |  |  | 
8 | CNCC(=O)Nc1nccc(Nc2ccc(S(N)(=O)=O)cc2)n1 | 0.06 µM | 0.06 µM |  |  | 
9 | CN(CC(=O)Nc1cccc(S(N)(=O)=O)c1)C(=N)N | 0.177 µM | 16.2 µM |  |  | 
10 | CN(CC(=O)Nc1ccccc1S(N)(=O)=O)C(=N)N | 0.205 µM | 20.3 µM |  |  | 
11 | NCC(=O)NCC(=O)Nc1cc(Cl)c(S(N)(=O)=O)cc1S(N)(=O)=O | 0.054 µM | 0.36 µM |  |  | 
12 | NCC(=O)Nc1nccc(Nc2ccc(S(N)(=O)=O)cc2)n1 | 0.075 µM | 0.061 µM |  |  | 
13 | NCC(=O)NCc1ccc(S(N)(=O)=O)cc1 | 0.082 µM | 1.4 µM |  |  | 
14 | NCC(=O)NCC(=O)NNc1ccc(S(N)(=O)=O)cc1 | 0.3 µM | 25.2 µM |  |  | 
15 | NCC(=O)NS(=O)(=O)c1ccc(CO)cc1 | 0.18 µM | 1.8 µM |  |  | 
16 | NCC(=O)NS(=O)(=O)c1nc2ccc(OCCO)cc2s1 | 0.023 µM | 0.009 µM |  |  | 
17 | NCC(=O)NCC(=O)NS(=O)(=O)c1ccc(CO)cc1 | 0.15 µM | 1.5 µM |  |  | 
18 | NCC(=O)NCCc1ccc(S(N)(=O)=O)cc1 | 0.076 µM | 0.85 µM |  |  | 
19 | NCC(=O)Nc1ccc(S(N)(=O)=O)cc1 | 0.175 µM |  |  |  | 
20 | CNCC(=O)Nc1ccc(S(N)(=O)=O)cc1I | 0.07 µM | 0.56 µM |  |  | 
21 | CN(CC(=O)NS(=O)(=O)c1nc2ccc(O)cc2s1)C(=N)N | 0.015 µM | 0.011 µM |  |  | 
22 | CN(CC(=O)NCc1ccc(S(N)(=O)=O)cc1)C(=N)N | 0.071 µM | 0.95 µM |  |  | 
23 | NCC(=O)Nc1cc(Cl)c(S(N)(=O)=O)cc1S(N)(=O)=O | 0.06 µM | 0.36 µM |  |  | 

Row | Structure (SMILES) | Ki (Carbonic anhydrase 4) | Ki (Carbonic anhydrase 1) | kin | kin [1] | logD [2]
24 | NCC(=O)NNc1ccc(S(N)(=O)=O)cc1 | 0.3 µM | 25.5 µM |  |  | 
25 | NCC(=O)NCC(=O)Nc1cccc(S(N)(=O)=O)c1 | 0.235 µM | 17 µM |  |  | 
26 | NCC(=O)NCC(=O)Nc1ccc(S(=O)(=O)Nc2cccc(S(N)(=O)=O)c2)cc1 | 0.06 µM | 0.055 µM |  |  | 
27 | CN(CC(=O)NCCc1ccc(S(N)(=O)=O)cc1)C(=N)N | 0.064 µM | 0.775 µM |  |  | 
28 | NCC(=O)NCC(=O)NCCc1ccc(S(N)(=O)=O)cc1 | 0.07 µM | 0.8 µM |  |  | 
29 | NCC(=O)NCC(=O)NCc1ccc(S(N)(=O)=O)cc1 | 0.075 µM | 1.36 µM |  |  | 
30 | NCC(=O)NCC(=O)Nc1ccc(S(N)(=O)=O)cc1Br | 0.07 µM | 0.57 µM |  |  | 
31 | CNCC(=O)Nc1nnc(S(N)(=O)=O)s1 | 0.039 µM | 0.305 µM |  |  | 
32 | NCC(=O)NCC(=O)Nc1ccc(S(N)(=O)=O)cc1Cl | 0.065 µM | 0.55 µM |  |  | 
33 | NCC(=O)Nc1ccc(S(N)(=O)=O)cc1Br | 0.073 µM | 0.6 µM |  |  | 
34 | Cn1nc(S(N)(=O)=O)s/c1=N/C(=O)CNC(=O)CN | 0.044 µM | 0.28 µM |  |  | 
35 | CN(CC(=O)Nc1cc(Cl)c(S(N)(=O)=O)cc1S(N)(=O)=O)C(=N)N | 0.042 µM | 0.31 µM |  |  | 
36 | CN(CC(=O)NNc1ccc(S(N)(=O)=O)cc1)C(=N)N | 0.245 µM | 20.8 µM |  |  | 
37 | CN(CC(=O)Nc1ccc2nc(S(N)(=O)=O)sc2c1)C(=N)N | 0.012 µM | 0.01 µM |  |  | 
38 | CNCC(=O)NS(=O)(=O)c1ccc(CCO)cc1 | 0.112 µM | 1.3 µM |  |  | 
39 | CN(CC(=O)Nc1ccc(S(=O)(=O)Nc2ccc(S(N)(=O)=O)cc2)cc1)C(=N)N | 0.051 µM | 0.046 µM |  |  | 
40 | CN(CC(=O)Nc1ccc(S(=O)(=O)Nc2cccc(S(N)(=O)=O)c2)cc1)C(=N)N | 0.057 µM | 0.045 µM |  |  | 
41 | NCC(=O)NCC(=O)NS(=O)(=O)c1ccc(CCO)cc1 | 0.15 µM | 1.5 µM |  |  | 
42 | CNCC(=O)NCCC(=O)Nc1nnc(S(N)(=O)=O)s1 | 0.009 µM | 0.021 µM |  |  | 
43 | CNCC(=O)NS(=O)(=O)c1nc2ccc(OCCO)cc2s1 | 0.015 µM | 0.01 µM |  |  | 
44 | CN(CC(=O)NS(=O)(=O)c1ccc(CO)cc1)C(=N)N | 0.089 µM | 1.2 µM |  |  | 
45 | CNCC(=O)Nc1ccc(S(=O)(=O)/N=c2\sc(S(N)(=O)=O)nn2C)cc1 |  | 0.011 µM |  |  | 
46 | CNCC(=O)NCc1ccc(S(N)(=O)=O)cc1 | 0.074 µM | 0.965 µM |  |  | 

Row | Structure (SMILES) | Ki (Carbonic anhydrase 4) | Ki (Carbonic anhydrase 1) | kin | kin [1] | logD [2]
47 | NCC(=O)NCC(=O)Nc1ccc(S(=O)(=O)Nc2ccc(S(N)(=O)=O)cc2)cc1 | 0.066 µM | 0.054 µM |  |  | 
48 | NCC(=O)Nc1ccc(S(N)(=O)=O)cc1Cl | 0.078 µM | 0.6 µM |  |  | 
49 | NCC(=O)Nc1ccc(S(N)(=O)=O)cc1F | 0.046 µM | 0.54 µM |  |  | 
50 | CNCC(=O)NNc1ccc(S(N)(=O)=O)cc1 | 0.28 µM | 22 µM |  |  | 
51 | NCC(=O)NCC(=O)Nc1ccc(S(N)(=O)=O)cc1 | 0.154 µM | 15 µM |  |  | 
52 | CN(CC(=O)Nc1ccc(S(N)(=O)=O)cc1)C(=N)N | 0.14 µM | 14.6 µM |  |  | 
53 | CN(CC(=O)Nc1ccc(S(N)(=O)=O)cc1I)C(=N)N | 0.069 µM | 0.545 µM |  |  | 
54 | CNCC(=O)NCCc1ccc(S(N)(=O)=O)cc1 | 0.07 µM | 0.82 µM |  |  | 
55 | NCC(=O)Nc1ccc(S(N)(=O)=O)cc1I | 0.074 µM | 0.61 µM |  |  | 
56 | NCC(=O)NCC(=O)NS(=O)(=O)c1nc2ccc(O)cc2s1 | 0.062 µM | 0.012 µM |  |  | 
57 | CNCC(=O)Nc1ccc(S(N)(=O)=O)cc1F | 0.046 µM | 0.5 µM |  |  | 
58 | CNCC(=O)Nc1ccc(S(N)(=O)=O)cc1Cl | 0.062 µM | 0.51 µM |  |  | 
59 | NCC(=O)NCC(=O)Nc1ccc(S(N)(=O)=O)cc1I | 0.071 µM | 0.59 µM |  |  | 
60 | Nc1ccc(S(=O)(=O)Nc2cccc(S(N)(=O)=O)c2)cc1 | 0.053 µM | 0.044 µM |  |  | 
61 | CCN(C(=O)CN)C1CC(C)S(=O)(=O)c2sc(S(N)(=O)=O)cc21 (centres undefined) | 0.035 µM | 0.098 µM |  |  | 
62 | Nc1ccc(S(=O)(=O)Nc2ccc(S(N)(=O)=O)cc2)cc1 | 0.05 µM |  |  |  | 
63 | CN(CC(=O)NS(=O)(=O)c1nc2ccc(OCCO)cc2s1)C(=N)N | 0.011 µM | 0.009 µM |  |  | 
64 | NCC(=O)NCC(=O)Nc1ccccc1S(N)(=O)=O | 0.24 µM | 23.5 µM |  |  | 
65 | Cn1nc(S(N)(=O)=O)s/c1=N\S(=O)(=O)c1ccc(N)cc1 | 0.0008 µM | 0.001 µM |  |  | 
66 | NCC(=O)Nc1ccc(S(=O)(=O)Nc2ccc(S(N)(=O)=O)cc2)cc1 | 0.086 µM | 0.062 µM |  |  | 
67 | CN(CC(=O)Nc1ccc(S(=O)(=O)/N=c2\sc(S(N)(=O)=O)nn2C)cc1)C(=N)N |  | 0.011 µM |  |  | 
68 | NCC(=O)NCC(=O)Nc1nccc(Nc2ccc(S(N)(=O)=O)cc2)n1 | 0.069 µM | 0.06 µM |  |  | 
69 | CNCC(=O)Nc1cccc(S(N)(=O)=O)c1 | 0.195 µM | 16.6 µM |  |  | 

Row | Structure (SMILES) | Ki (Carbonic anhydrase 4) | Ki (Carbonic anhydrase 1) | kin | kin [1] | logD [2]
70 | CN(CC(=O)Nc1ccc(S(N)(=O)=O)cc1Br)C(=N)N | 0.062 µM | 0.525 µM |  |  | 
71 | CNCC(=O)Nc1ccccc1S(N)(=O)=O | 0.205 µM | 20.3 µM |  |  | 
72 | Cn1nc(S(N)(=O)=O)s/c1=N\S(=O)(=O)c1ccc(NC(=O)CNC(=O)CN)cc1 |  | 0.013 µM |  |  | 
73 | NCC(=O)NCC(=O)NCCC(=O)Nc1nnc(S(N)(=O)=O)s1 | 0.012 µM | 0.021 µM |  |  | 
74 | CNCC(=O)Nc1ccc2nc(S(N)(=O)=O)sc2c1 | 0.014 µM | 0.01 µM |  |  | 
75 | CN(CC(=O)Nc1ccc(S(N)(=O)=O)cc1Cl)C(=N)N | 0.06 µM | 0.51 µM |  |  | 
76 | NCC(=O)NS(=O)(=O)c1ccc(CCO)cc1 | 0.155 µM | 1.7 µM |  |  | 
77 | NCC(=O)Nc1ccccc1S(N)(=O)=O | 0.245 µM | 25 µM |  |  | 
78 | CNCC(=O)Nc1ccc(S(N)(=O)=O)cc1 | 0.146 µM | 15 µM |  |  | 
79 | NCC(=O)NCC(=O)Nc1ccc(S(N)(=O)=O)cc1F | 0.045 µM | 0.54 µM |  |  | 
80 | CN(CC(=O)Nc1c(S(N)(=O)=O)cc(S(N)(=O)=O)c(Cl)c1Cl)C(=N)N | 0.051 µM | 0.525 µM |  |  | 
81 | Cn1nc(S(N)(=O)=O)s/c1=N\S(=O)(=O)c1ccc(NC(=O)CN)cc1 |  | 0.015 µM |  |  | 
82 | CN(CC(=O)NS(=O)(=O)c1ccc(CCO)cc1)C(=N)N | 0.086 µM | 1 µM |  |  | 
83 | NCC(=O)Nc1c(S(N)(=O)=O)cc(S(N)(=O)=O)c(Cl)c1Cl | 0.062 µM | 0.52 µM |  |  | 
84 | NCC(=O)Nc1ccc(S(=O)(=O)Nc2cccc(S(N)(=O)=O)c2)cc1 | 0.079 µM | 0.06 µM |  |  | 
85 | NCC(=O)NCC(=O)Nc1ccc2nc(S(N)(=O)=O)sc2c1 | 0.064 µM | 0.016 µM |  |  | 
86 | NCC(=O)Nc1ccc2nc(S(N)(=O)=O)sc2c1 | 0.072 µM | 0.017 µM |  |  | 
87 | CN(CC(=O)Nc1ccc(S(=O)(=O)Nc2nnc(S(N)(=O)=O)s2)cc1)C(=N)N | 0.005 µM | 0.012 µM |  |  | 
88 | CNCC(=O)NS(=O)(=O)c1nc2ccc(O)cc2s1 | 0.03 µM | 0.011 µM |  |  | 
89 | Nc1nccc(Nc2ccc(S(N)(=O)=O)cc2)n1 | 0.154 µM |  |  |  | 
90 | CC(=O)/N=c1/sc(S(N)(=O)=O)nn1C [METHAZOLAMIDE] |  |  | 1.9 h⁻¹ | 13 h⁻¹ | 0.06
